Patent US20070037788A1, “Tricyclic steroid hormone nuclear receptor modulators” (Eli Lilly and Company, priority 2003, published 2007)

How the values were obtained:
human MR = target: T1, human MR (Homo sapiens, UniProt P08235); assay: Mineralocorticoid Receptor Binding Assay (Method 1); conditions: [3H]-aldosterone
T1 construct: The full length human MR gene is cloned from a human kidney or human brain cDNA library; made in house; host or cells: SF9 insect cells (baculovirus)
T1 sequence (P08235 1-984): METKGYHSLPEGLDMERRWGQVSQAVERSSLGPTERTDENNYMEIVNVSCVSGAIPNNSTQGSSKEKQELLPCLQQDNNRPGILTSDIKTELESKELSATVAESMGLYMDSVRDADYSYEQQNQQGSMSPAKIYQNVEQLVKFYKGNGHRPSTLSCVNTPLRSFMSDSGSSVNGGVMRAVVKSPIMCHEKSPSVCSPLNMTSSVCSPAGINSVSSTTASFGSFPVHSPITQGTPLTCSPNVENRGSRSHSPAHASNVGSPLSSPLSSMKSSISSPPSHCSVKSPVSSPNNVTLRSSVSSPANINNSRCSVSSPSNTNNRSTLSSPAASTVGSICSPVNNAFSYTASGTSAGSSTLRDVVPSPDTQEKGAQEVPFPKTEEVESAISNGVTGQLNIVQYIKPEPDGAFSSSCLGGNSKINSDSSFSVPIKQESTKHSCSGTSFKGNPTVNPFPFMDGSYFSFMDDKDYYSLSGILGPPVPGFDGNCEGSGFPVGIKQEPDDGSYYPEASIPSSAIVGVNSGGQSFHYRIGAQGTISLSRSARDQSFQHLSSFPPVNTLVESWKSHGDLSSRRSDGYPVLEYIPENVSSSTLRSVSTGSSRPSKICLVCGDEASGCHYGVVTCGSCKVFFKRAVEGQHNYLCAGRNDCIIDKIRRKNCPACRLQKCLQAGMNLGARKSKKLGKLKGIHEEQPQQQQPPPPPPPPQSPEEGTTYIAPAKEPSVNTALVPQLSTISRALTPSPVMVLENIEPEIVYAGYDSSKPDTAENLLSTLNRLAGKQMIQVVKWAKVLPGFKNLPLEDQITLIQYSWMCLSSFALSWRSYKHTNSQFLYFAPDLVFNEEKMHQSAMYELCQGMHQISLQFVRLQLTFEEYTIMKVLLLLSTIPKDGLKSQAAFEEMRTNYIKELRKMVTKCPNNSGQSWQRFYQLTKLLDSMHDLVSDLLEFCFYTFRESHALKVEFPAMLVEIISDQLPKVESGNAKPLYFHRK
Method: The full length human MR gene is cloned from a human kidney or human brain cDNA library. Briefly, using synthetic oligonucleotide primers (Eli Lilly and Company, Indianapolis) directed to nucleotides 20-54 and 3700-3666 of the human MR, polymerase chain reaction (PCR) is performed under standard conditions using a human cDNA library. The PCR reaction is performed in a final volume of 50 μl containing about 1 μl of a 50× stock solution of polymerase; about 1 μl of a 50× stock solution of DNTP; about 5 μl of an appropriate PCR buffer; about 1 μl of each primer; about 5 μl of a H. kidney or H. brain cDNA library; and about 36 μl of water. The reaction is allowed to denature for about 30 seconds at 95 degrees Celsius, anneal for about 30 seconds at 55 degrees Celsius, and extend for about 5 minutes at 72 degrees Celsius, the sequence being repeated for a total of about 35 cycles. The desired PCR product (3.68 Kb) is confirmed by gel electrophoresis and subsequently cut from the gel and stored at about −20 degrees Celsius until extraction. To extract the cDNA product from the agarose gel, the QIAEX II Gel Extraction protocol (QIAGEN, Inc.) is employed according to the manufacturer's instructions. Following extraction, the MR cDNA is cloned into an appropriate cloning vector (Zero Blunt TOPO PCR Cloning Kit (Invitrogen, Inc.) and a pAcHLT-baculovirus transfer vector (B.D./Pharminogen), then expressed in SF9 insect cells, essentially according to manufacturer's instructions. Sf9 cells are grown at a scale where gram quantity cell pellets are obtained for subsequent use in the MR binding assay. Harvested cell pellets are lysed by repeated freeze-thaw cycles (about 4) in a suitable lysis buffer then centrifuged at about 1×10^3 G (with the supernatant being saved for future assays).
MR binding assays are performed in a final total volume of about 250 μl containing about 20-25 μg of protein and 0.5 nM of [^3H]-aldosterone plus varying concentrations of test compound or vehicle. The assay binding buffer consists of 30 mM sodium molybdate, 30 mM of TRIS-HCl, 5 mM sodium phosphate, 5 mM sodium pyrophosphate, and about 10% glycerol, pH=7.5.
Briefly, assays are prepared at RT in 96-well Falcon 3072 plates, each well containing 210 μl of binding buffer, 10 μl of [^3H]-aldosterone, 10 μl of test compound/vehicle, and 20 μl of the resuspended receptor protein extract. Incubations are carried out at 4 degrees Celsius with shaking for about 16 hours. 200 μl aliquots of each incubation are filtered onto Millipore HA 0.45 micron 96-well filter plates, pre-moistened with cold 30 mM TRIS-HCl. The filter plates are suctioned dry with vacuum and immediately washed 3× with cold 30 mM TRIS-HCl. The plates are then punched out and the amount of receptor-ligand complex is determined by liquid scintillation counting using 4 ml of Ready Protein Plus™ liquid scintillation cocktail.

glucocorticoid receptor = target: T2, glucocorticoid receptor (Homo sapiens, UniProt P04150); assay: Glucocorticoid Receptor Binding Assay (Method 1); conditions: A549 cell extract, [3H]-dexamethasone, read-out: GR Ki
T2 construct: containing 50-200 ug of A549 cell extract and 1.86 nM [^3H]-dexamethasone; host or cells: A549 human lung epithelial cells
T2 sequence (P04150 1-777): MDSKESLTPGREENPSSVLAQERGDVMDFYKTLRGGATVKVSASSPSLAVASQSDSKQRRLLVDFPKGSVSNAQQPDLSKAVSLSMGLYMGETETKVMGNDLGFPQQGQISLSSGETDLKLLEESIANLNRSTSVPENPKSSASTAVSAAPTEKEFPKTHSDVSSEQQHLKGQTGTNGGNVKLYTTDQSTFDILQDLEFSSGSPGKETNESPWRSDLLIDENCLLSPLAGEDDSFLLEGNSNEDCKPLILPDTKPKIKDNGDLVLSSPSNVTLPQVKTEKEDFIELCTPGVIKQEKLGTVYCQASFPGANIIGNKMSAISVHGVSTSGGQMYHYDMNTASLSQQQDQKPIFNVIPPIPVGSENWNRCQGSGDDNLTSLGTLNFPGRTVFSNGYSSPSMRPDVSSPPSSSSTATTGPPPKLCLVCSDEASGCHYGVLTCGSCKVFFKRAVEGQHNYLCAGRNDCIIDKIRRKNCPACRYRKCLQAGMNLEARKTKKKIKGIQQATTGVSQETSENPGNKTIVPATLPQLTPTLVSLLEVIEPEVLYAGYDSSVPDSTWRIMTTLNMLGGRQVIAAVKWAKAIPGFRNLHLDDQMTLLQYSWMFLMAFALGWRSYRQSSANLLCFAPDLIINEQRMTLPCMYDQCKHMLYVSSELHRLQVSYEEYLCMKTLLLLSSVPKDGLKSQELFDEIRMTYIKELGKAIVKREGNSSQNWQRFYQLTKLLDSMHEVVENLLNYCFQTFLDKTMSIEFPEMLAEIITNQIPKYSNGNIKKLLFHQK
Method: A549 human lung epithelial cells (ATCC) are grown at a scale where gram quantity cell pellets are obtained. Harvested cell pellets are washed twice in cold phosphate buffered saline, centrifuged, and resuspended in cold assay binding buffer. The assay binding buffer consists of 10% glycerol, 50 mM Tris-HCl (pH7.2), 75 mM sodium chloride, 1.5 mM magnesium chloride, 1.5 mM EDTA, and 10 mM sodium molybdate. Cell suspensions were lysed via sonication, centrifuged, and the “extract” supernatant is snap frozen and stored at −80 C until needed.
GR binding assays are performed in a final volume of 140 ul containing 50-200 ug of A549 cell extract and 1.86 nM [^3H]-dexamethasone (Amersham) plus varying concentrations of test compound or vehicle. Briefly, assays are prepared at RT in 96-well Fisher 3356 plates, each well containing 100 ul of A549 cell extract, 20 ul of [^3H]-dexamethasone, and 20 ul of test compound/vehicle. Incubations are carried out at 4 degrees Celsius for 16 hours. After incubation, 70 ul of 3× dextran-coated charcoal solution is added to each reaction, mixed, and incubated for 8 minutes at RT. […] 200 ul of Microscint-20 scinillant (Packard Instruments) is added to each well and amount of receptor bound radioligand is determined using Packard Instruments TopCount instrument.

[1] = in combination with standard CHF therapy, patients suffering from advanced CHF; cited from earlier work

Structure (SMILES)	Ki (human MR) [nM]	other results
CN(C)CCn1c(=O)[nH]c2cc(/C=C3\c4ccccc4COc4cc(F)ccc43)ccc21 [Example 6]	< 500	Ki (glucocorticoid receptor): < 10000 nM
CN1CC[C@@H](n2c(=O)[nH]c3cc(/C=C4/c5ccc(F)cc5OCc5c(F)cccc54)ccc32)C1 [Example 47]	< 500	–
O=c1[nH]c2cc(C=C3c4ccc(F)cc4CCc4cc(F)ccc43)ccc2n1CCCN1CCOCC1 [Example 48]	< 500	–
O=c1[nH]c2cc(C=C3c4ccc(F)cc4CCc4cc(F)ccc43)ccc2n1CCN1CCNCC1 [Example 49]	< 500	–
O=c1[nH]c2cc(C=C3c4ccc(F)cc4CCc4cc(F)ccc43)ccc2n1CCN1CCCC1 [Example 50]	< 500	–
CN(C)CCn1c(=O)[nH]c2cc(C=C3c4ccc(F)cc4CCc4cc(F)ccc43)ccc21 [Example 51]	< 500	–
CN1CCN(CCn2c(=O)[nH]c3cc(C=C4c5ccc(F)cc5CCc5cc(F)ccc54)ccc32)CC1 [Example 52]	< 500	–
CC(=O)S[C@@H]1CC2=CC(=O)CC[C@]2(C)[C@H]2CC[C@@]3(C)[C@@H](CC[C@@]34CCC(=O)O4)[C@H]12 [spironolactone]	–	reduced cardiac related mortality [1]: 30%; reduced frequency of hospitalization [1]: 35%
